The source of these data is patent US8586609B2, “Aryl-substituted polycyclic amines, method for the production thereof, and use thereof as a medicament” (Sanofi-Aventis Deutschland GmbH, priority 2004, dated 2013).

The test system of the test is female NMRI mice. The experiment in a line: Anorectic effect: reduction in cumulative milk consumption of treated compared with control animals. It is filed as in vivo. Conditions: oral dose 30 mg/kg by gavage; female NMRI mice after withdrawal of feed for 17 hours; condensed milk consumption determined every half hour for 7 hours. As to the method: The anorectic effect was tested on female NMRI mice. After withdrawal of feed for 17 hours, the test product was administered by gavage. The animals were housed singly with free access to drinking water and were offered condensed milk 30 minutes after administration of the product. The condensed milk consumption was determined every half hour for 7 hours, and the general wellbeing of the animals was observed. The measured milk consumption was compared with the vehicle-treated control animals.

Each structure is given as a SMILES string.

In the case of `CN1C[C@H]2CCN(c3ccc(NC(=O)N4CCC(c5ccc(Cl)cc5)CC4)cc3)[C@H]2C1` (stereo in doubt) [Example 9, 4-(4-Chlorophenyl)piperidine-1-carboxylic acid [4-(5-methylhexahydropyrrolo[3,4-b]pyrrol-1-yl)phenyl]amide], the “Reduction in cumulative milk consumption as % of the control” value is 82 % of the control.
